Here are results for 27 compounds from patent US11590139B2, “Substituted aminopurine compounds, compositions thereof, and methods of treatment therewith” (Signal Pharmaceuticals, LLC, priority 2014, dated 2023).

The subject of one assay is Lox-IMVI melanoma cell line. The experiment in a line: Lox-IMVI anti-proliferative assay (growth inhibition, Cell Titer-Glo). Conditions: Homo sapiens; IC50 activity level in the cell-based Lox-IMVI anti-proliferative assay; read-out: Activity. It counts as cell-based, human. The method, boiled down:
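RPMI/10% FBS; cmpd 0.5 nM–10 μM, 3-fold ×10, duplicate, 0.2% DMSO final; 72 h, 37 °C, 5% CO2. ATP-luminescence readout at t0 and 72 h. IC50 = 50% of DMSO control, 4-parameter logistic fit.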
(ATP-based viability assays read luminescence as a measure of living cells.)
`NC(=O)[C@H]1CC[C@@H](n2c(Nc3c(Cl)cc(F)cc3Cl)nc3cnc(N[C@H]4C[C@H](O)C4)nc32)CC1` [Example 284, (1s,4s)-4-(8-(2,6-dichloro-4-fluorophenylamino)-2-((1r,3r)-3-hydroxycyclobutylamino)-9H-purin-9-yl)cyclohexanecarboxamide]: the IC50 is more than 1 µM. In the case of `NC(=O)[C@H]1CC[C@@H](n2c(Nc3ccc(Cl)cc3Cl)nc3cnc(N[C@H]4COC[C@@H]4O)nc32)CC1` [Example 319, (1R,4s)-4-(8-(2,4-dichlorophenylamino)-2-((3S,4R)-4-hydroxytetrahydrofuran-3-ylamino)-9H-purin-9-yl)cyclohexanecarboxamide], the IC50 was more than 1 µM. The same measure, in the same setting: as for `CC[C@@H](CO)Nc1ncc2nc(Nc3ccc(Cl)cc3Cl)n([C@H]3CC[C@@H](C(N)=O)CC3)c2n1` [Example 149, (1R,4s)-4-(8-(2,4-dichlorophenylamino)-2-((S)-1-hydroxybutan-2-ylamino)-9H-purin-9-yl)cyclohexanecarboxamide], the figure is more than 1 µM; as for `N#Cc1cc(F)c(Nc2nc3cnc(NC4CCC4)nc3n2[C@H]2CC[C@@H](C(N)=O)CC2)c(Cl)c1` [Example 393, (1s,4s)-4-(8-(2-chloro-4-cyano-6-fluorophenylamino)-2-(cyclobutylamino)-9H-purin-9-yl)cyclohexanecarboxamide], 0.25 to 0.5 µM.

On to `Cc1cc(F)c(Nc2nc3cnc(NC4CCOCC4)nc3n2[C@H]2CC[C@@H](C(N)=O)CC2)c(F)c1` [Example 115, (1s,4s)-4-(8-(2,6-difluoro-4-methylphenylamino)-2-(tetrahydro-2H-pyran-4-ylamino)-9H-purin-9-yl)cyclohexanecarboxamide], for which the IC50 lay in the range of 0.5 to 1 µM. In the case of `C[C@@H]1CC[C@@H](Nc2ncc3nc(Nc4c(F)cc(Cl)cc4Cl)n([C@H]4CC[C@@H](C(N)=O)CC4)c3n2)C[C@H]1O` [Example 346, (1S,4s)-4-(8-(2,4-dichloro-6-fluorophenylamino)-2-((1R,3R,4R)-3-hydroxy-4-methylcyclohexylamino)-9H-purin-9-yl)cyclohexanecarboxamide], the IC50 lay within 0.25 to 0.5 µM. In the case of `NC(=O)[C@H]1CC[C@@H](n2c(Nc3c(F)cc(Cl)cc3F)nc3cnc(NC4CC(F)(F)C4)nc32)CC1` [Example 229, (1s,4s)-4-(8-(4-chloro-2,6-difluorophenylamino)-2-(3,3-difluorocyclobutylamino)-9H-purin-9-yl)cyclohexanecarboxamide], the IC50 is more than 1 µM.

In the case of `NC(=O)[C@H]1CC[C@@H](n2c(Nc3ccc(Cl)c(F)c3F)nc3cnc(N[C@@H]4CCC[C@H]4O)nc32)CC1` [Example 258, (1S,4s)-4-(8-(4-chloro-2,3-difluorophenylamino)-2-((1R,2R)-2-hydroxycyclopentylamino)-9H-purin-9-yl)cyclohexanecarboxamide], the IC50 is more than 1 µM.

Staying with this assay, now noted: Homo sapiens; Lox-IMVI anti-proliferative assay, IC50 activity level; read-out: Activity.
`N#Cc1cc(Cl)c(Nc2nc3cnc(N[C@@H]4CCOC4)nc3n2[C@H]2CC[C@@H](C(N)=O)CC2)c(Cl)c1` [Example 518, (1S,4s)-4-(8-(2,6-dichloro-4-cyanophenylamino)-2-((R)-tetrahydrofuran-3-ylamino)-9H-purin-9-yl)cyclohexanecarboxamide]: the IC50 is 0.25 to 0.5 µM. Turning to `NC(=O)[C@H]1CC[C@@H](n2c(Nc3c(Cl)cc(F)cc3Cl)nc3cnc(NC4CCCOCC4)nc32)CC1` (stereo partly drawn) [Example 541, (1s,4s)-4-(8-(2,6-dichloro-4-fluorophenylamino)-2-(oxepan-4-ylamino)-9H-purin-9-yl)cyclohexanecarboxamide], the IC50 was 0.5 to 1 µM. Same read-out and setting: as for `NC(=O)[C@H]1CC[C@@H](n2c(Nc3c(Cl)cc(F)cc3Cl)nc3cnc(NCC(F)(F)CO)nc32)CC1` [Example 452, (1s,4s)-4-(8-(2,6-dichloro-4-fluorophenylamino)-2-(2,2-difluoro-3-hydroxypropylamino)-9H-purin-9-yl)cyclohexanecarboxamide], the figure is more than 1 µM. On to `NC(=O)[C@H]1CC[C@@H](n2c(Nc3c(F)cc(F)cc3F)nc3cnc(N[C@H]4CCC(F)(F)C4)nc32)CC1` [Example 593, (1R,4s)-4-(2-((S)-3,3-difluorocyclopentylamino)-8-(2,4,6-trifluorophenylamino)-9H-purin-9-yl)cyclohexanecarboxamide], for which the IC50 lay in the range of 0.25 to 0.5 µM.

`NC(=O)[C@H]1CC[C@@H](n2c(Nc3c(Cl)cc(F)cc3Cl)nc3cnc(N[C@@H]4CCC[C@@H](O)C4)nc32)CC1` [Example 423, (1S,4s)-4-(8-(2,6-dichloro-4-fluorophenylamino)-2-((1R,3R)-3-hydroxycyclohexylamino)-9H-purin-9-yl)cyclohexanecarboxamide]: the IC50 was in the range of 0.5 to 1 µM. On to `C[C@H]1COCC[C@H]1Nc1ncc2nc(Nc3c(F)cc(Cl)cc3F)n([C@H]3CC[C@@H](C(N)=O)CC3)c2n1` [Example 508, (1S,4s)-4-(8-(4-chloro-2,6-difluorophenylamino)-2-((3R,4R)-3-methyltetrahydro-2H-pyran-4-ylamino)-9H-purin-9-yl)cyclohexanecarboxamide], for which the IC50 fell in the range of 0.5 to 1 µM. Regarding `C[C@]1(C(N)=O)CC[C@@H](n2c(Nc3c(F)cc(F)cc3Cl)nc3cnc(NC4CCCC4)nc32)CC1` [Example 558, (1s,4s)-4-(8-(2-chloro-4,6-difluorophenylamino)-2-(cyclopentylamino)-9H-purin-9-yl)-1-methylcyclohexanecarboxamide], the IC50 is less than 0.25 µM. Take `N#Cc1cc(F)c(Nc2nc3cnc(NC4CC5(COC5)C4)nc3n2[C@H]2CC[C@@H](C(N)=O)CC2)c(Cl)c1` [Example 572, (1s,4s)-4-(2-(2-oxaspiro[3.3]heptan-6-ylamino)-8-(2-chloro-4-cyano-6-fluorophenylamino)-9H-purin-9-yl)cyclohexanecarboxamide]: the IC50 lay in the range of 0.5 to 1 µM. With `NC(=O)[C@H]1CC[C@@H](n2c(Nc3c(Cl)cccc3Cl)nc3cnc(N[C@@H]4CCC[C@@H](O)C4)nc32)CC1` [Example 417, (1S,4s)-4-(8-(2,6-dichlorophenylamino)-2-((1R,3R)-3-hydroxycyclohexylamino)-9H-purin-9-yl)cyclohexanecarboxamide], the IC50 is more than 1 µM.

Regarding `N#Cc1cc(F)c(Nc2nc3cnc(N[C@@H]4CCC[C@H](O)C4)nc3n2[C@H]2CC[C@@H](C(N)=O)CC2)c(F)c1` [Example 457, (1S,4s)-4-(8-(4-cyano-2,6-difluorophenylamino)-2-((1R,3S)-3-hydroxycyclohexylamino)-9H-purin-9-yl)cyclohexanecarboxamide], the IC50 is more than 1 µM.

Staying with this assay, now noted: Homo sapiens; Lox-IMVI anti-proliferative assay, cell-based; read-out: Activity (IC50 activity level).
On to `N#Cc1cc(F)c(Nc2nc3cnc(N[C@@H]4CCOC[C@H]4F)nc3n2[C@H]2CC[C@@H](C(N)=O)CC2)c(F)c1` [Example 801, (1S,4s)-4-(8-(4-cyano-2,6-difluorophenylamino)-2-((3S,4R)-3-fluorotetrahydro-2H-pyran-4-ylamino)-9H-purin-9-yl)cyclohexanecarboxamide], for which the IC50 was less than 0.25 µM.

The same assay, now with this note: Homo sapiens; Lox-IMVI melanoma cell line, anti-proliferative assay; read-out: Activity (IC50 activity level).
Consider `NC(=O)[C@H]1CC[C@@H](n2c(Nc3c(F)cc(Cl)cc3Cl)nc3cnc(N[C@@H]4CCCN(C(=O)Nc5ccccc5)C4)nc32)CC1` [Example 783, (R)-3-(9-((1s,4S)-4-carbamoylcyclohexyl)-8-(2,4-dichloro-6-fluorophenylamino)-9H-purin-2-ylamino)-N-phenylpiperidine-1-carboxamide], for which the IC50 is more than 1 µM.

As for `NC(=O)[C@H]1CC[C@@H](n2c(Nc3c(Cl)cc(Cl)cc3Cl)nc3cnc(NC4CCC(c5ncno5)CC4)nc32)CC1` (stereo partly drawn) [Example 678, (1s,4s)-4-(2-(4-(1,2,4-oxadiazol-5-yl)cyclohexylamino)-8-(2,4,6-trichlorophenylamino)-9H-purin-9-yl)cyclohexanecarboxamide], the IC50 was more than 1 µM. As for `C[C@]1(C(N)=O)CC[C@@H](n2c(Nc3c(Cl)cc(F)cc3Cl)nc3cnc(NC4CCOCC4)nc32)CC1` [Example 675, (1s,4s)-4-(8-(2,6-dichloro-4-fluorophenylamino)-2-(tetrahydro-2H-pyran-4-ylamino)-9H-purin-9-yl)-1-methylcyclohexanecarboxamide], the IC50 is less than 0.25 µM. Turning to `C[C@]1(C(N)=O)CC[C@@H](n2c(Nc3c(F)cc(F)cc3Cl)nc3cnc(NC4CCOCC4)nc32)CC1` [Example 673, (1s,4s)-4-(8-(2-chloro-4,6-difluorophenylamino)-2-(tetrahydro-2H-pyran-4-ylamino)-9H-purin-9-yl)-1-methylcyclohexanecarboxamide], the IC50 was less than 0.25 µM. The same measure, in the same setting: in the case of `C[C@]1(C(N)=O)CC[C@@H](n2c(Nc3c(F)cc(Cl)cc3F)nc3cnc(N[C@@H]4CC[C@@H](O)C4)nc32)CC1` [Example 639, (1S,4s)-4-(8-(4-chloro-2,6-difluorophenylamino)-2-((1R,3R)-3-hydroxycyclopentylamino)-9H-purin-9-yl)-1-methylcyclohexanecarboxamide] it was less than 0.25 µM; in that of `NC(=O)[C@H]1CC[C@@H](n2c(Nc3c(F)cc(F)cc3F)nc3cnc(NC[C@@H]4CCCC[C@@H]4O)nc32)CC1` [Example 652, (1R,4s)-4-(2-(((1S,2S)-2-hydroxycyclohexyl)methylamino)-8-(2,4,6-trifluorophenylamino)-9H-purin-9-yl)cyclohexanecarboxamide], more than 1 µM. `NC(=O)[C@H]1CC[C@@H](n2c(Nc3c(F)cc(Cl)cc3F)nc3cnc(N[C@@H]4CCOC[C@H]4F)nc32)CC1` [Example 671, (1S,4s)-4-(8-(4-chloro-2,6-difluorophenylamino)-2-((3S,4R)-3-fluorotetrahydro-2H-pyran-4-ylamino)-9H-purin-9-yl)cyclohexanecarboxamide]: the IC50 is less than 0.25 µM. With `NC(=O)[C@H]1CC[C@@H](n2c(Nc3c(Cl)cc(Cl)cc3Cl)nc3cnc(NC[C@@H]4CCCC[C@@H]4O)nc32)CC1` [Example 654, (1R,4s)-4-(2-(((1S,2S)-2-hydroxycyclohexyl)methylamino)-8-(2,4,6-trichlorophenylamino)-9H-purin-9-yl)cyclohexanecarboxamide], the IC50 is more than 1 µM.
